Experimental data as given in article PMC8791944, “GLUT3 inhibitor discovery through in silico ligand screening and in vivo validation in eukaryotic expression systems” (Scientific Reports, 2022).

Experiments:
Assay type in all cases: cell-based
HL60 leukemia cells = assay: MTT cancer cell viability assay, HL60; conditions: HL60, 48 h
Protocol: (§1) A possible therapeutic application of GLUT3 inhibitors is in oncology, especially for cancers in which GLUT3 is a poor prognosis marker. We tested the effect of GLUT3 inhibitors on the cell viability of several different cancer lines: myeloid leukemia (HL60 and U937), lung cancer (A549), colorectal adenocarcinoma (Caco-2), breast cancer (MCF7), hepatocellular carcinoma (HepG2), and choriocarcinoma (BeWo) cells. GLUT3 inhibitors, at five different concentrations, ranging from 2 to 100 µM, were incubated with cancer cells for 48 h. Then, cell viability was assessed with the MTT assay. […] G3iC and G3iD also affected the leukemia cell lines but at double the concentrations of G3iB and G3iE. […] G3iB had some cytotoxic activity (CC50 < 50 µM) against the highest number of cancer cell lines (HL60, U937, A549, HepG2, and MCF7).
(§2) Cancer cell viability in the presence of GLUT3 inhibitors was assayed using the MTT Cell Viability Kit (Biotium Inc, Freemont, CA) according to manufacturer’s instructions. Cancer cells were grown in the corresponding medium, at 37 °C and 5% CO2 in a humidified incubator. The media (Gibco) for leukemia cells (HL60 and U937), A549, MCF7, BeWo, and HepG2 cells were RPMI 1640, Ham’s F-12K, DMEM:F-12, Ham’s F-12K, and EMEM, respectively, all supplemented with 10% (v/v) fetal bovine serum (HyClone). Caco-2 cells were grown in EMEM supplemented with 20% (v/v) fetal bovine serum. Cells were detached from the culture flasks with Accutase (Innovative Cell Technologies, Inc., San Diego, CA) according to manufacturer’s instructions. Cells were seeded in 96-well plates, at a density of ~ 30,000 cells/well (in 100 µl fresh media) and incubated with varying concentrations of GLUT3 inhibitors for 48 h, at 37 °C and 5% CO2 in a humidified incubator. The inhibitors were dissolved in DMSO, at 100× the final concentration, so that 1 µl of the stock inhibitor concentration was added per well, making the final DMSO concentration 1% (v/v). Therefore, controls for 100% cell viability were cells with 1% (v/v) DMSO without the inhibitors. Controls for 0% cell viability were cells treated with 0.3% (v/v) Tween 20. For MTT assay, 10 µl of MTT reagent was added in each well followed by 3–4 h incubation at 37 °C and 5% CO2 in a humidified incubator. After thoroughly mixing in 200 µl DMSO in each well, the plates were put into a plate reader (BioTek Synergy H1), and the absorbances at 570 nm and 630 nm were measured with Gen5 program (BioTek Inc.). The experimental values represent Abs570 nm-Abs630 nm with each inhibitor condition and control being the average of three wells.
(§3) Supplementary Figure S8. Effect of GLUT3 inhibitors on the viability of various cancer cell lines. Cell viability was determined by MTT assay in A549 (lung cancer), BeWo (choriocarcinoma), Caco-2 (colon cancer), HepG2 (liver cancer), HL-60 (leukemia), MCF7 (breast cancer), and U937 (histiocytic lymphoma) cell lines. GLUT3 inhibitors at concentrations of 2, 5, 10, 20, 50, and 100 µM were incubated with cells in 96-well plates for 48 hours before the addition of the MTT reagent.

U937 leukemia cells = assay: MTT cancer cell viability assay, U937; conditions: U937, 48 h
Protocol: as §1, §2, §3

A549 (lung cancer) cells = assay: MTT cancer cell viability assay, A549; conditions: A549, 48 h
Protocol: as §1, §2, §3

Row | Structure (SMILES) | CC50 (HL60 leukemia cells; Homo sapiens, HL-60, 48 h) [µM] | CC50 (U937 leukemia cells; Homo sapiens, U-937, 48 h) [µM] | CC50 (A549 (lung cancer) cells; Homo sapiens) [µM] | CC50 (A549 (lung cancer) cells) [µM] | CC50 (HL60 leukemia cells) [µM] | CC50 (U937 leukemia cells) [µM]
1 | CC(=O)Nc1ccc(S(=O)(=O)Nc2ccc(Nc3cc(N(C)C)nc(C)n3)cc2)cc1 [G3iA, N-(4-{[(4-{[6-(dimethylamino)-2-methylpyrimidin-4-yl]amino}phenyl)amino]sulfonyl}phenyl)acetamide] | > 100 | > 100 | > 100 |  |  | 
2 | Cc1cccnc1OC1CCN(c2cc(N3CCCC3CO)ncn2)CC1 (stereo not shown) [G3iC] | 31.1 ± 3.8 | > 50 | ~22 | 21.6 ± 2.5 |  | 
3 | Cc1cc(NC(=O)CCC2Cc3ccccc3NC2=O)nc(-c2ccccc2)n1 (stereo not shown) [G3iD] | 28.7 ± 2.1 | > 50 | 32.5 ± 14.2 |  |  | 
4 | O=C(Nc1cccc(Cl)c1)c1cccc(NC(=O)c2cccc([N+](=O)[O-])c2)c1 [G3iE, N-{3-[(3-chloroanilino)carbonyl]phenyl}-3-nitrobenzamide] | < 20 | < 20 | ~33 | > 50 | 15.7 ± 0.8 | ~18
5 | Cc1ccccc1CN(Cc1nnc(C(C)(C)C)o1)c1ccc2nc(O)[nH]c2c1 [G3iF] | > 50 | > 50 | > 100 |  |  | 
